Measured values taken from the NIST ThermoML archive (doi:10.1016/j.jct.2012.10.008).

Test: xn = mol fraction of the nth substance listed
Conditions: 101 kPa, Liquid; for viscosity: Falling or rolling sphere viscometry; for mass density: Vibrating tube method

CCCC[NH3+].O=[N+]([O-])[O-] [n-butylammonium nitrate] + CCCCO
Conditions	mass density, 293.15 K [kg/m3]	mass density, 298.15 K [kg/m3]	mass density, 303.15 K [kg/m3]	mass density, 308.15 K [kg/m3]	mass density, 313.15 K [kg/m3]	viscosity, 293.15 K [mPa·s]	viscosity, 298.15 K [mPa·s]	viscosity, 303.15 K [mPa·s]	viscosity, 308.15 K [mPa·s]	viscosity, 313.15 K [mPa·s]
x1 = 0.1004	851.35	847.7	844.02	840.32	836.6	5.242	4.554	3.985	3.506	3.099
x1 = 0.1999	888.16	884.59	881	877.4	873.79	–	6.852	5.961	5.217	4.592
x1 = 0.2993	922.05	918.6	915.12	911.54	908.03	11.36	9.747	8.447	7.302	6.344
x1 = 0.3992	953.58	950.14	946.7	943.25	939.81	17.51	14.95	12.76	11.03	9.601
x1 = 0.4955	982.07	978.69	975.31	971.93	968.56	24.22	20.34	17.34	14.86	12.88
x1 = 0.6508	1024.4	1021.11	1017.81	1014.53	1011.26	38.67	31.95	26.79	22.66	19.51
x1 = 0.801	1061.11	1057.88	1054.67	1051.47	1048.29	60.58	49.4	40.82	34.2	28.96
x1 = 0.8998	1083.71	1080.52	1077.34	1074.19	1071.05	83.12	68.14	56.15	46.69	39.11
x1 = 1	1104.68	1101.52	1098.38	1095.26	1092.17	111.35	89.95	73.04	60.25	50.12

CCCC[NH3+].O=[N+]([O-])[O-] [n-butylammonium nitrate] + CCCO
Conditions	mass density, 293.15 K [kg/m3]	mass density, 298.15 K [kg/m3]	mass density, 303.15 K [kg/m3]	mass density, 308.15 K [kg/m3]	mass density, 313.15 K [kg/m3]	viscosity, 293.15 K [mPa·s]	viscosity, 298.15 K [mPa·s]	viscosity, 303.15 K [mPa·s]	viscosity, 308.15 K [mPa·s]	viscosity, 313.15 K [mPa·s]
x1 = 0.0999	855.12	851.36	847.56	843.75	839.91	4.091	3.599	3.182	2.824	2.516
x1 = 0.2004	898.27	894.64	890.99	887.32	883.65	6.691	5.828	5.108	4.503	3.989
x1 = 0.2994	935.27	931.74	928.19	924.64	921.09	10.45	8.998	7.81	6.822	6.009
x1 = 0.4007	968.52	965.08	961.63	958.18	954.74	16.54	14.11	12.11	10.49	9.207
x1 = 0.4995	997.32	993.96	990.59	987.23	983.88	22.52	19.08	16.29	14.05	12.19
x1 = 0.6495	1035.44	1032.16	1028.88	1025.62	1022.36	38.05	31.62	26.59	22.59	19.39
x1 = 0.7978	1067.64	1064.42	1061.21	1058.02	1054.86	61.01	49.83	41.2	34.54	29.21
x1 = 0.9008	1087.69	1084.51	1081.34	1078.19	1075.07	83.36	67.14	55.16	46.11	40.09
x1 = 1	1104.68	1101.52	1098.38	1095.26	1092.17	111.35	89.95	73.04	60.25	50.12

CCCC[NH3+].O=[N+]([O-])[O-] [n-butylammonium nitrate] + CCO
Conditions	mass density, 293.15 K [kg/m3]	mass density, 298.15 K [kg/m3]	mass density, 303.15 K [kg/m3]	mass density, 308.15 K [kg/m3]	mass density, 313.15 K [kg/m3]	viscosity, 293.15 K [mPa·s]	viscosity, 298.15 K [mPa·s]	viscosity, 303.15 K [mPa·s]	viscosity, 308.15 K [mPa·s]	viscosity, 313.15 K [mPa·s]
x1 = 0.0995	858.45	854.53	850.59	846.63	842.66	2.5	2.251	2.036	1.846	1.682
x1 = 0.1997	910.07	906.36	902.64	898.9	895.16	4.379	3.895	3.486	3.134	2.827
x1 = 0.2999	951.56	947.99	944.41	940.85	937.28	7.388	6.633	5.868	5.192	4.591
x1 = 0.3998	985.07	981.61	978.16	974.71	971.27	12.29	10.67	9.285	8.205	7.25
x1 = 0.5005	1012.9	1009.57	1006.2	1003.2	999.76	18.53	15.89	13.78	12.04	10.57
x1 = 0.6501	1047.63	1044.37	1041.1	1037.86	1034.62	32.66	27.42	23.15	19.83	17.12
x1 = 0.8003	1075.57	1072.36	1069.17	1066	1062.84	56.97	46.57	38.82	32.55	27.74
x1 = 0.8989	1090.94	1087.76	1084.6	1081.46	1078.34	79.51	65.34	53.93	44.86	37.86
x1 = 1	1104.68	1101.52	1098.38	1095.26	1092.17	111.35	89.95	73.04	60.25	50.12

CCCC[NH3+].O=[N+]([O-])[O-] [n-butylammonium nitrate] + CO
Conditions	mass density, 293.15 K [kg/m3]	mass density, 298.15 K [kg/m3]	mass density, 303.15 K [kg/m3]	mass density, 308.15 K [kg/m3]	mass density, 313.15 K [kg/m3]	viscosity, 293.15 K [mPa·s]	viscosity, 298.15 K [mPa·s]	viscosity, 303.15 K [mPa·s]	viscosity, 308.15 K [mPa·s]	viscosity, 313.15 K [mPa·s]
x1 = 0.0999	884.86	880.73	876.67	872.57	868.45	1.377	1.267	1.173	1.119	1.014
x1 = 0.1998	944.76	940.97	937.17	933.38	929.59	2.723	2.466	2.248	2.058	1.893
x1 = 0.3012	987.04	983.43	979.82	976.23	972.64	4.923	4.382	3.934	3.555	3.229
x1 = 0.4005	1016.59	1013.11	1009.64	1006.18	1002.74	9.129	8	7.037	6.242	5.584
x1 = 0.5015	1039.93	1036.55	1033.17	1029.82	1026.48	14.79	12.8	11.16	9.779	8.66
x1 = 0.6507	1065.48	1062.21	1058.95	1055.7	1052.47	28.64	24.08	20.59	17.77	15.5
x1 = 0.8007	1085.18	1081.98	1078.78	1075.61	1072.46	51.33	42.07	35.23	29.65	25.41
x1 = 0.9007	1096.21	1093.04	1089.88	1086.74	1083.63	77.73	64.34	53.02	44.24	37.21
x1 = 1	1104.68	1101.52	1098.38	1095.26	1092.17	111.35	89.95	73.04	60.25	50.12
